From patent US20260306484A1, “INVERSE AGONISTS OF RAR RELATED ORPHAN RECEPTORS (RORS)” (11949098 CANADA INC. (NUREDCO) c/o Jean I. TCHERVENKOV, priority 2023, published 2026)

What was measured:
[1] = test system: CD4+ cells from in-vitro polarized peripheral blood mononuclear cells; test: Th17-polarized PBMCs treated 48 h, then PMA/ionomycin and intracellular staining by flow cytometry; assay type: cell-based, human; conditions: 750 nM, PBMCs from 9 individuals, vs vehicle, paired t-test P<0.05
Experimental: FIG. 4 illustrates a bar graph represents the % of IL17A+ cells also known as Th17 cells out of CD4+ cells known as Helper T cells. The peripheral blood mononuclear cells from 9 individuals were polarized (in-vitro) using CD3/CD28 dynabeads in presence of TGFβ, IL1B, IL6 and IL23 for 14 days. The cells from each individual was divided into two equal portions and one portion was treated with the Cpd10 at dose of 750 nM and the second portion was treated with the vehicle for 48 hours followed by PMA/ionomycin in presence of transport blocker for 6 hours. Cpd10 decreased the % of IL17A+CD4+ in treated compared to vehicle treated controls and measured by flow cytometry. Paired t-test, significant, P<0.05.
(§1) FIG. 5 illustrates a bar graph represents the % of IL21+ cells which includes all types of CD4+ cells secreting IL21 (e.g. Th17, Tfh). The peripheral blood mononuclear cells from 9 individuals were polarized (in-vitro) using CD3/CD28 dynabeads in presence of TGFβ, IL1β, IL6 and IL23 for 14 days. The cells from each individual was divided into two equal portions and one portion was treated with the Cpd10 at dose of 750 nM and the second portion was treated with the vehicle for 48 hours followed by PMA/ionomycin in presence of transport blocker for 6 hours. Cpd10 decreased the % of IL21+CD4+ in treated compared to vehicle treated controls measured by flow cytometry. Paired t-test Significant P<0.05.
as §1, with “FIG. 6” for “FIG. 5”, “of IL22+” for “of IL21+”, “secreting IL22” for “secreting IL21”, “Th17, Th22).” for “Th17, Tfh).”, “of IL22+CD4+” for “of IL21+CD4+”, “Paired t-test, significant,” for “Paired t-test Significant”
FIG. 7 illustrates a bar graph represents the % RORγt+ cells which includes all types of CD4+ cells expressing RORγt (e.g. Th17). The peripheral blood mononuclear cells from 9 individuals were polarized (in-vitro) using CD3/CD28 dynabeads in presence of TGFβ, IL1β, IL6 and IL23 for 14 days. The cells from each individual was divided into two equal portions and one portion was treated with the Cpd10 at dose of 750 nM and the second portion was treated with the vehicle for 48 hours followed by PMA/ionomycin in presence of transport blocker for 6 hours. Cpd10 increased the % of RORγt+ CD4+ in treated compared to vehicle treated controls measured by flow cytometry. […]

[2] = test system: breast cancer cell lines; test: Cell colony forming units, breast cancer; assay type: cell-based, human; conditions: 5 micromolar
[3] = test system: Hepa1-6 cells; test: Hepa1-6 colony formation assay; assay type: cell-based, mouse
From the text: (§2) FIG. 32 illustrates another in vitro viability assay Colony Formation Assay. […] HuH-7 and Hepa1-6 colony formation assays.
(§3) FIG. 33 illustrates another in vitro viability assay Colony Formation Assay. […] HuH-7 and Hepa1-6 colony formation assays.

[4] = test system: HuH-7 cells; test: HuH-7 colony formation assay; assay type: cell-based, human
From the text: as §2, §3

[5] = test system: pancreatic cancer (PDL1 expression); test: PDL1 immune checkpoint expression in pancreatic cancer; assay type: cell-based, human; conditions: pancreatic cancer (FIG. 19)
[6] = test system: HuH-7 cells; test: HuH-7 cell viability assay (MTT, GFP); assay type: cell-based, human
From the text: (§4) FIG. 30 illustrates in vitro cell viability assay both human HuH-7 and mouse Hepa1-6 cell lines with increasing concentrations of compound 10. In the human cell line you see an effect with as low as 1mMol concentration. HuH-7 and Hepa1-6 cell viability assays.

[7] = test system: Hepa1-6 cells; test: Hepa1-6 cell viability assay (MTT, GFP); assay type: cell-based, mouse; conditions: varying concentrations
From the text: as §4

[8] = test system: Balb/c skin grafts; test: Balb/c skin graft survival in sensitized C57BL/6 recipients (Example 9); assay type: in vivo, mouse (C57BL/6); conditions: for median graft survival: daily ip, cpd 13 1 mg/kg, tacrolimus 0.5 mg/kg, or both, ctrl = 6 days, P-value<<0.001, mantel-cox test
Experimental: C57BL/6 mice were sensitized by 3 IP injections of 10 M Balb/c splenocytes at day 0, 7 and 14. The mice were transplanted at day 15 with 1 cm^2 skin grafts from Balb/c mice and treated daily with ip injections of vehicle (ctrl), cpd 13 1 mg/kg (131 mg/kg), tacrolimus 0.5 mg/kg (tacro0.5 mg/kg) and cpd13 1 mg/kg+tacrolimus 0.5 mg/kg (131 mg/kg+tacro0.5 mg/kg). P-value<<0.001, mantel-cox test; median graft survival: ctrl=6 days, tacro0.5 mg/kg=7 days, 131 mg/kg=13.5 days and cpd13 131 mg/kg+tacro0.5 mg/kg=23 days.

| Compound | % of IL17A+ cells (Th17) out of CD4+ cells [1] | % of IL21+CD4+ cells [1] | % of IL22+CD4+ cells [1] | % of RORγt+ CD4+ cells [1] | ability to form colony forming units [2] | minimal effective concentration ([3]; Mus musculus, Hepa1-6, both cell lines suppressed, read-out: concentration at which Hepa1-6 colony formation is suppressed) | Hepa1-6 colony growth ability ([3]; varying concentrations) | minimal effective concentration ([4]; Homo sapiens, Huh-7, both cell lines suppressed, read-out: concentration at which HuH-7 colony formation is suppressed) | HuH-7 colony growth ability ([4]; varying concentrations) | expression of PDL1 [5] | minimal effective concentration ([6]; human cell line HuH-7, read-out: lowest concentration with an effect on cell viability) | HuH-7 cell viability, GFP assay ([6]; varying concentrations) | HuH-7 cell viability, MTT assay ([6]; varying concentrations) | Hepa1-6 cell viability, GFP assay [7] | Hepa1-6 cell viability, MTT assay [7] | median graft survival [8] | skin graft survival increase ([8]; increase survival from 1 up to 3 weeks (FIG. 50)) |
| --- | --- | --- | --- | --- | --- | --- | --- | --- | --- | --- | --- | --- | --- | --- | --- | --- | --- |
| CN1CCN(CC(=O)Nc2sc3c(c2C(=O)NCc2ccccc2)CCCC3)CC1 [Compound 10, N-benzyl-2-(2-(4-methylpiperazin-1-yl)acetamido)-4,5,6,7-tetrahydrobenzo[b]thiophene-3-carboxamide] | decreased | decreased | decreased | increased | significantly reduces | 2500 µM | significant and dose dependent difference | 2500 µM | significant and dose dependent difference | increases that expression | 1000 µM | significant and dose dependent difference | significant and dose dependent difference | significant and dose dependent difference | significant and dose dependent difference |  |  |
| C[C@@H]1CCN(C(=O)c2c(NC(=O)c3cccnc3)sc3c2CCCC3)[C@H](C)C1 [Compound 13, N-(3-((2R,4R)-2,4-dimethylpiperidine-1-carbonyl)-4,5,6,7-tetrahydrobenzo[b]thiophen-2-yl) nicotinamide] |  |  |  |  |  |  |  |  |  |  |  |  |  |  |  | 13.5 days | up to 3 weeks |
| C=CC[C@@H]1/C=C(\C)C[C@H](C)C[C@H](OC)[C@H]2O[C@@](O)(C(=O)C(=O)N3CCCC[C@H]3C(=O)O[C@H](/C(C)=C/[C@@H]3CC[C@@H](O)[C@H](OC)C3)[C@H](C)[C@@H](O)CC1=O)[C@H](C)C[C@@H]2OC [tacrolimus, reference compound] |  |  |  |  |  |  |  |  |  |  |  |  |  |  |  | 7 days |  |
